In PubChem BioAssay AID248 (DTP/NCI, 2004):
Several values for one entry are separate records, joined by “and”; a condition that tells them apart may be missing. Equal entries are not always repeated. Inconclusive results and toxic doses are left out.

Test system: L1210 leukemia ip in BDF1 mice, survival T/C
Experiment: NCI In Vivo Anticancer Drug Screen. Data for tumor model L1210 Leukemia (intraperitoneal) in B6D2F1 (BDF1) mice
Conditions: endpoint: mean survival time, higher = longer survival
Summary of the method: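 Mice bearing the transplanted tumor received compound or vehicle. Survival of the treated group was divided by that of the vehicle-treated control group to give the ratio.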

[1] = dose: 100.0 mg/kg/injection, schedule: Q01DX009 (ip), vehicle: other
[2] = dose: 100.0 mg/kg/injection, schedule: Q04DX003 (ip), vehicle: saline
[3] = dose: 200.0 mg/kg/injection, schedule: Q01DX009 (ip), vehicle: other
[4] = dose: 200.0 mg/kg/injection, schedule: Q04DX003 (ip), vehicle: saline
[5] = dose: 400.0 mg/kg/injection, schedule: Q04DX003 (ip), vehicle: saline
[6] = dose: 100.0 mg/kg/injection, schedule: Q04DX003 (ip), vehicle: saline with Tween-80
[7] = dose: 200.0 mg/kg/injection, schedule: Q04DX003 (ip), vehicle: saline with Tween-80
[8] = dose: 25.0 mg/kg/injection, schedule: Q01DX009 (ip), vehicle: other
[9] = dose: 25.0 mg/kg/injection, schedule: Q04DX003 (ip), vehicle: other
[10] = dose: 50.0 mg/kg/injection, schedule: Q01DX001 (ip), vehicle: saline
[11] = dose: 100.0 mg/kg/injection, schedule: Q01DX001 (ip), vehicle: saline
[12] = dose: 200.0 mg/kg/injection, schedule: Q01DX001 (ip), vehicle: saline

Structure (SMILES): CCN(CC)CCN1C(=O)c2cccc3cccc(c23)C1=O
- T/C (dose: 10.5 mg/kg/injection, schedule: Q03HX024 (ip), vehicle: saline): 102 % of control
- T/C (dose: 15.7 mg/kg/injection, schedule: Q03HX024 (ip), vehicle: saline): 98 % of control
- T/C (dose: 23.4 mg/kg/injection, schedule: Q03HX024 (ip), vehicle: saline): 99 % of control
- T/C (dose: 34.8 mg/kg/injection, schedule: Q03HX024 (ip), vehicle: saline): 111 % of control
- T/C (dose: 52.0 mg/kg/injection, schedule: Q03HX024 (ip), vehicle: saline): 165 % of control
- T/C (dose: 96.0 mg/kg/injection, schedule: Q01DX009 (ip), vehicle: saline): 111 % of control
- T/C (dose: 96.0 mg/kg/injection, schedule: Q03HX024 (ip), vehicle: saline): 96 % of control
- T/C (dose: 105.0 mg/kg/injection, schedule: Q01DX001 (ip), vehicle: saline): 103 % of control
- T/C (dose: 105.0 mg/kg/injection, schedule: Q04DX003 (ip), vehicle: saline): 100 % of control
- T/C (dose: 157.0 mg/kg/injection, schedule: Q01DX001 (ip), vehicle: saline): 100 % of control
- T/C (dose: 157.0 mg/kg/injection, schedule: Q04DX003 (ip), vehicle: saline): 110 % of control

Structure (SMILES): Nc1ccc(OCc2ccc(S(=O)(=O)F)c(Cl)c2)c(Cl)c1
- T/C [1]: 91 % of control
- T/C [2]: 93 % of control
- T/C [3]: 92 % of control
- T/C [4]: 95 % of control
- T/C [5]: 98 % of control

Structure (SMILES): N#Cc1c(F)c(F)c(Oc2c(F)c(F)c(Oc3c(F)c(F)c(C#N)c(F)c3F)c(F)c2F)c(F)c1F
- T/C (dose: 100.0 mg/kg/injection, schedule: Q01DX001 (ip), vehicle: Klucel (hydroxypropylcellulose) (HPC)): 97 % of control
- T/C (dose: 100.0 mg/kg/injection, schedule: Q04DX003 (ip), vehicle: Klucel (hydroxypropylcellulose) (HPC)): 94 % of control
- T/C (dose: 200.0 mg/kg/injection, schedule: Q01DX001 (ip), vehicle: Klucel (hydroxypropylcellulose) (HPC)): 97 % of control
- T/C (dose: 200.0 mg/kg/injection, schedule: Q04DX003 (ip), vehicle: Klucel (hydroxypropylcellulose) (HPC)): 94 % of control
- T/C (dose: 400.0 mg/kg/injection, schedule: Q01DX001 (ip), vehicle: Klucel (hydroxypropylcellulose) (HPC)): 89 % of control
- T/C (dose: 400.0 mg/kg/injection, schedule: Q04DX003 (ip), vehicle: Klucel (hydroxypropylcellulose) (HPC)): 92 % of control

Structure (SMILES): CC12CC3CC(C)(C1)CC(SCCN=C(N)CCl)(C3)C2
- T/C (dose: 10.0 mg/kg/injection, schedule: Q04DX002 (ip), vehicle: Klucel (hydroxypropylcellulose) (HPC)): 105 % of control
- T/C (dose: 20.0 mg/kg/injection, schedule: Q04DX002 (ip), vehicle: Klucel (hydroxypropylcellulose) (HPC)): 102 % of control
- T/C (dose: 40.0 mg/kg/injection, schedule: Q04DX002 (ip), vehicle: Klucel (hydroxypropylcellulose) (HPC)): 110 % of control

Structure (SMILES): CCCn1cnc2c(=S)nc(N)[nH]c21
- T/C (dose: 0.94 mg/kg/injection, schedule: Q01DX Z (ip), vehicle: methylcellulose (MC)): 105 % of control
- T/C (dose: 1.88 mg/kg/injection, schedule: Q01DX Z (ip), vehicle: methylcellulose (MC)): 122 % of control
- T/C (dose: 3.3 mg/kg/injection, schedule: Q01DX Z (ip), vehicle: methylcellulose (MC)): 121 % of control
- T/C (dose: 3.75 mg/kg/injection, schedule: Q01DX Z (ip), vehicle: methylcellulose (MC)): 108 % of control
- T/C (dose: 5.0 mg/kg/injection, schedule: Q01DX Z (ip), vehicle: methylcellulose (MC)): 152 % of control
- T/C (dose: 7.5 mg/kg/injection, schedule: Q01DX Z (ip), vehicle: methylcellulose (MC)): 101 % of control
- T/C (dose: 15.0 mg/kg/injection, schedule: Q01DX Z (ip), vehicle: methylcellulose (MC)): 105 % of control

Structure (SMILES): CCCN(C)N=Nc1ccccc1C(N)=O
- T/C (dose: 44.0 mg/kg/injection, schedule: Q01DX009 (ip), vehicle: saline with Tween-80): 108 % of control
- T/C (dose: 50.0 mg/kg/injection, schedule: Q01DX009 (ip), vehicle: saline with Tween-80): 113 % of control
- T/C (dose: 50.0 mg/kg/injection, schedule: Q04DX003 (ip), vehicle: saline with Tween-80): 110 % of control
- T/C (dose: 66.0 mg/kg/injection, schedule: Q01DX009 (ip), vehicle: saline with Tween-80): 108 % of control
- T/C (dose: 100.0 mg/kg/injection, schedule: Q01DX001 (ip), vehicle: other): 109 % of control
- T/C [6]: 111 % of control
- T/C (dose: 150.0 mg/kg/injection, schedule: Q01DX009 (ip), vehicle: saline with Tween-80): 153 % of control
- T/C (dose: 200.0 mg/kg/injection, schedule: Q01DX001 (ip), vehicle: other): 113 % of control
- T/C (dose: 200.0 mg/kg/injection, schedule: Q01DX009 (ip), vehicle: saline with Tween-80): 120 % of control
- T/C [7]: 118 % of control

Structure (SMILES): Nc1ccc2nc[nH]c2c1
- T/C (dose: 100.0 mg/kg/injection, schedule: Q01DX009 (ip), vehicle: saline): 98 % of control
- T/C [2]: 101 % of control
- T/C (dose: 200.0 mg/kg/injection, schedule: Q01DX009 (ip), vehicle: saline): 95 % of control
- T/C [4]: 104 % of control
- T/C (dose: 400.0 mg/kg/injection, schedule: Q01DX009 (ip), vehicle: saline): 87 % of control
- T/C [5]: 102 % of control

Structure (SMILES): FC(F)(F)c1ccc2nc(CI)c(CI)nc2c1
- T/C (dose: 6.0 mg/kg/injection, schedule: Q01DX009 (ip), vehicle: other): 98 % of control
- T/C (dose: 12.0 mg/kg/injection, schedule: Q01DX009 (ip), vehicle: other): 91 % of control
- T/C (dose: 12.5 mg/kg/injection, schedule: Q01DX009 (ip), vehicle: saline with Tween-80): 88 % of control
- T/C [8]: 95 % of control
- T/C [9]: 94 % of control
- T/C (dose: 50.0 mg/kg/injection, schedule: Q04DX003 (ip), vehicle: other): 87 % of control
- T/C (dose: 100.0 mg/kg/injection, schedule: Q04DX003 (ip), vehicle: other): 97 % of control

Structure (SMILES): C=C1C(=O)OC2C1C(OC(=O)/C(C)=C/COC(C)=O)CC1(CO1)C1C(O)C=C(C)C21 (configuration not stated)
- T/C (dose: 12.5 mg/kg/injection, schedule: Q01DX009 (ip), vehicle: alcohol): 103 % of control
- T/C (dose: 25.0 mg/kg/injection, schedule: Q01DX009 (ip), vehicle: alcohol): 105 % of control
- T/C (dose: 50.0 mg/kg/injection, schedule: Q01DX009 (ip), vehicle: alcohol): 105 % of control and 107 % of control

Structure (SMILES): CC(C)N1CCOCC1
- T/C (dose: 25.0 mg/kg/injection, schedule: Q01DX009 (ip), vehicle: acetone): 94 % of control
- T/C (dose: 50.0 mg/kg/injection, schedule: Q01DX009 (ip), vehicle: acetone): 105 % of control
- T/C (dose: 100.0 mg/kg/injection, schedule: Q01DX009 (ip), vehicle: acetone): 102 % of control

Structure (SMILES): O=C(CCCC(=O)NNC(=O)Nc1cccc2ccccc12)NNC(=O)Nc1cccc2ccccc12
- T/C [10]: 98 % of control
- T/C [11]: 96 % of control
- T/C [12]: 87 % of control

Structure (SMILES): O=C(C=C(C(F)(F)F)C(F)(F)F)c1ccc(F)cc1
- T/C (dose: 6.25 mg/kg/injection, schedule: Q01DX009 (ip), vehicle: other): 91 % of control
- T/C (dose: 6.25 mg/kg/injection, schedule: Q04DX003 (ip), vehicle: other): 95 % of control
- T/C (dose: 12.5 mg/kg/injection, schedule: Q01DX009 (ip), vehicle: other): 92 % of control
- T/C (dose: 12.5 mg/kg/injection, schedule: Q04DX003 (ip), vehicle: other): 109 % of control
- T/C [8]: 103 % of control
- T/C [9]: 97 % of control and 103 % of control

Structure (SMILES): O/N=C1/CC2CCC(C2)C1(O)c1ccccc1 (configuration not stated)
- T/C [11]: 103 % of control
- T/C [12]: 113 % of control
- T/C (dose: 400.0 mg/kg/injection, schedule: Q01DX001 (ip), vehicle: saline): 103 % of control

Structure (SMILES): CN(C)CCC/C=N/Nc1ccc(Cl)cc1[N+](=O)[O-]
- T/C [6]: 96 % of control
- T/C [7]: 91 % of control

Structure (SMILES): CC(=O)c1ccc(N2CCN(C)CC2)cc1
- T/C [10]: 100 % of control
- T/C [11]: 102 % of control

Structure (SMILES): CCc1ccc(NC(=S)NC(=O)c2ccccc2OC)cc1
- T/C [1]: 98 % of control
- T/C [3]: 103 % of control
- T/C (dose: 400.0 mg/kg/injection, schedule: Q01DX009 (ip), vehicle: other): 93 % of control

Structure (SMILES): CCC1=CC2CC3(C(=O)OC)c4[nH]c5ccccc5c4CC[N+](Cc4ccccc4)(C2)C13 (configuration not stated)
- T/C [11]: 100 % of control

Structure (SMILES): Nc1ccc(CCO)cc1
- T/C [2]: 105 % of control
- T/C [4]: 96 % of control
- T/C [5]: 96 % of control

Structure (SMILES): Cc1ccc2nc(/C=C/c3ccc(N(C)C)cc3)cc(C)c2c1
- T/C (dose: 25.0 mg/kg/injection, schedule: Q01DX Z (ip), vehicle: carboxymethylcellulose (CMC)): 89 % of control
- T/C (dose: 100.0 mg/kg/injection, schedule: Q01DX Z (ip), vehicle: carboxymethylcellulose (CMC)): 96 % of control
- T/C (dose: 200.0 mg/kg/injection, schedule: Q01DX Z (ip), vehicle: carboxymethylcellulose (CMC)): 100 % of control
